Values after ≈ are worked out from the molar mass of the structure shown.
Key:
[1] = test system: UEA-1 binding sites on Caco-2 cell membrane preparations; test: Two tier competition assay: compound incubated alone with membranes, biotinylated UEA-1 added in next step; set-up: species or system human
Experimental: (§1) The epithelial cell binding ability of compounds and mixtures obtained from synthetic combinatorial libraries was determined by competition assays. These assays were set up to measure the inhibition of binding of biotinylated UEA-1 to membrane preparations of the epithelial cell line Caco-2 (colon carcinoma cells-2), by compounds and mixtures of the combinatorial libraries. This cell line is a conventional model for epithelial cells.
(§2) Two competition inhibition assays were used in this case, namely single tier and two tier assays. These assays differed from each other in that in the single tier assay, the mixtures/compounds and the biotinylated UEA-1 were incubated together with the Caco-2 cell membrane preparations, while in case of the two-tier assay, the mixture/compounds were allowed to incubate alone with the cell membranes in the absence of biotinylated UEA-1, which was added in the next step. Addition of the extra step in the two-tier assay was to ensure that the compounds inhibiting the binding of biotinylated UEA-1 to the Caco-2 cell membranes were doing so by themselves binding to surface receptors on the Caco-2 cells and not to the biotinylated UEA-1. Each assay will be described in detail.
(§3) • 1. Confluent Caco-2 cell monolayers (grown in 75 cm^2 flasks for up to 1 week at 37° C. and 5% CO2) were washed twice in Dulbecco's PBS (DPBS). • 2. Cell monolayers were treated with 10 mM EDTA-DPBS for 5–10 min at 37° C. and cells were harvested by centrifugation at 1000 rpm for 5 min. • 3. Cells were washed 3 times in DPBS. • 4. […] The cells were homogenised for 30 sec. • 6. The homogenates were centrifuged in hard walled tubes at 40,000 rpm for 45 min at 4° C. • 7. […] The supernatant was removed and stored on ice. The procedure was repeated adding the second supernatant to the first. • 8. The protein concentration was determined using e.g. a Bio-Rad protein assay. • 9. All fractions were stored at −80° C. prior to use. Single Tier Assays: • 1. 96-well microtiter plates were coated with membrane preparations of Caco-2 cells either by allowing them to incubate on the plates for 2½ hours at room temperature or by incubating them overnight at 4° C. 100 μl of 10 μg/ml (in 0.05 M carbonate buffer, pH 9.6) of membrane preparation was added to each well. • 2. The plates were flicked out, patted dry and blocked with bovine serum albumin (BSA)/DPBS (200 μl/well) for 1 to 4 hours at room temperature after which they were washed three times in water. • 3. […] Control wells were also set up in which the Caco-2 cell membrane preparations were incubated with unconjugated UEA-1. […] Following overnight incubation the plates were washed thoroughly (3–6 times). The plates were flicked out, patted dry and biotinylated UEA-1 was detected with commercial Streptavidin conjugated to horseradish peroxidase (HRP) (CalBiochem). […] The plates were left to incubate for an hour at room temperature. • 6. The plates were then washed 3–6 times and the biotin-streptavidin binding was detected by adding an HRP substrate OPD (orthophenyl diamine) to each well. 100 μl/well of this substrate at a final concentration of 1.6 mg/ml was added to each well. Before adding to the wells, this substrate was activated by addition of 50 μl of 3% H2O2 per plate and the reaction was allowed to develop in the dark. • 7. The reaction was stopped by adding 50 μl of 4 N H2SO4 to each well after approximately 5–10 minutes or when sufficient colour had developed. The OD490 (absorbance at 490 nm) of each well was measured using a conventional 96 well plate reading spectrophotometer. Two Tier Assays: • 1. 96 well plates were coated with Caco-2 cell membrane preparations in the same manner as described in the single tier assay. • 2. […] 100 μl at these final concentrations were added to each well. • 4. The plates were then left to incubate overnight, a step that would allow the mixtures and compounds to interact with the Caco-2 cell membranes without the presence of the competitor (biotinylated UEA-1) itself. • 5. […]

[2] = test system: UEA-1 binding sites on Caco-2 cell membrane preparations; test: Single tier competition assay: inhibition of biotinylated UEA-1 binding, compound and biotinylated UEA-1 incubated together; set-up: species or system human
Experimental: as §1, §2, §3

[3] = Table 8, galloyl constructs, read-out: IC 50 (uM) 2nd tier
[4] = library MSI 27, read-out: Two Tier Assay IC50
[5] = Table 8, galloyl constructs, read-out: IC 50 (uM) 1st tier (converted)
[6] = library MSI 27, read-out: Single Tier Assay IC50

Row | Compound | IC50 [1, 4] [µM] | IC50 [2, 6] [µM] | IC 50 (ug/ml) 2nd tier ([1]; Table 8, galloyl constructs) [µg/mL] | IC50 [1, 3] [µM] | Two Tier Assay IC50 ([1]; library MSI 27) [µg/mL] | IC 50 (ug/ml) 1st tier ([2]; Table 8, galloyl constructs) [µg/mL] | IC50 [2, 5] [µM] | Single Tier Assay IC50 ([2]; library MSI 27) [µg/mL]
1 | NC(=O)C(CCCCNC(=O)c1cc(O)c(O)c(O)c1)NC(=O)C(CCCCNC(=O)c1cc(O)c(O)c(O)c1)NC(=O)c1cc(O)c(O)c(O)c1 (stereo not shown) [Cpd 30] | 11.5 | 35.5 | 5 (≈ 6.85 µM) | 7 | 8.36 | 14 (≈ 19.2 µM) | 19 | 25.89
2 | NC(=O)C(CCCCNC(=O)c1ccc(O)cc1)NC(=O)C(CCCCNC(=O)c1ccc(O)cc1)NC(=O)c1ccc(O)cc1 (stereo not shown) [Cpd 31] | 395 | 395 |  |  |  |  |  | 
3 | COc1ccc(C(=O)NCCCCC(NC(=O)C(CCCCNC(=O)c2ccc(OC)c(OC)c2)NC(C)=O)C(N)=O)cc1OC (stereo not shown) [Cpd 34] | 135 | 189 |  |  | 87.01 |  |  | 121.40
4 | COc1cc(C(=O)NCCCCC(NC(=O)C(CCCCNC(=O)c2cc(OC)c(OC)c(OC)c2)NC(C)=O)C(N)=O)cc(OC)c1OC (stereo not shown) [Cpd 36] | 178 | 355 |  |  | 125.00 |  |  | 
5 | CC(=O)NC(CCCCNC(=O)c1cc(O)c(O)c(O)c1)C(=O)NC(CCCCNC(=O)c1cc(O)c(O)c(O)c1)C(N)=O (stereo not shown) [Cpd 38] | 87.6 | 142 | 48 (≈ 77.5 µM) | 77 | 54.27 | 54 (≈ 87.1 µM) | 86 | 87.78
6 | COc1ccc(C(=O)NCCCC[C@@H](NC(=O)[C@@H](CCCCNC(=O)c2ccc(OC)c(OC)c2)NC(=O)[C@@H](CCCCNC(=O)c2ccc(OC)c(OC)c2)NC(=O)c2ccc(OC)c(OC)c2)C(N)=O)cc1OC [Cpd 42] | 108 | 101 |  |  | 113.80 |  |  | 107.00
7 | COc1cc(C(=O)NCCCC[C@@H](NC(=O)[C@@H](CCCCNC(=O)c2cc(OC)c(OC)c(OC)c2)NC(=O)[C@@H](CCCCNC(=O)c2cc(OC)c(OC)c(OC)c2)NC(=O)c2cc(OC)c(OC)c(OC)c2)C(N)=O)cc(OC)c1OC [Cpd 44] | 212 | 212 |  |  |  |  |  | 
8 | NC(=O)C(CCCCNC(=O)c1cc(O)c(O)c(O)c1)NC(=O)C(CCCCNC(=O)c1cc(O)c(O)c(O)c1)NC(=O)C(CCCCNC(=O)c1cc(O)c(O)c(O)c1)NC(=O)c1cc(O)c(O)c(O)c1 (stereo not shown) [Cpd 46] | 1.98 | 14.8 | 0.6 (≈ 0.594 µM) | 0.6 | 2.00 | 8 (≈ 7.92 µM) | 8 | 14.92
9 | NC(=O)[C@@H](CCCCNC(=O)c1ccc(O)cc1)NC(=O)[C@@H](CCCCNC(=O)c1ccc(O)cc1)NC(=O)[C@@H](CCCCNC(=O)c1ccc(O)cc1)NC(=O)c1ccc(O)cc1 [Cpd 47] | 283 | 283 |  |  |  |  |  | 
10 | NC(=O)[C@@H](CCCCNC(=O)c1cc(O)cc(O)c1)NC(=O)[C@@H](CCCCNC(=O)c1cc(O)cc(O)c1)NC(=O)[C@@H](CCCCNC(=O)c1cc(O)cc(O)c1)NC(=O)c1cc(O)cc(O)c1 [Cpd 48] | 264 | 264 |  |  |  |  |  | 
11 | COc1ccc(C(=O)NCCCCC(NC(=O)C(CCCCNC(=O)c2ccc(OC)c(OC)c2)NC(=O)C(CCCCNC(=O)c2ccc(OC)c(OC)c2)NC(C)=O)C(N)=O)cc1OC (stereo not shown) [Cpd 50] | 45.7 | 82.4 |  |  | 42.79 |  |  | 77.09
12 | COc1cc(C(=O)NCCCCC(NC(=O)C(CCCCNC(=O)c2cc(OC)c(OC)c(OC)c2)NC(=O)C(CCCCNC(=O)c2cc(OC)c(OC)c(OC)c2)NC(C)=O)C(N)=O)cc(OC)c1OC (stereo not shown) [Cpd 52] | 221 | 170 |  |  | 226.70 |  |  | 174.80
13 | CC(=O)NC(CCCCNC(=O)c1cc(O)c(O)c(O)c1)C(=O)NC(CCCCNC(=O)c1cc(O)c(O)c(O)c1)C(=O)NC(CCCCNC(=O)c1cc(O)c(O)c(O)c1)C(N)=O (stereo not shown) [Cpd 54] | 3.33 | 7.61 | 2 (≈ 2.22 µM) | 3 | 3.00 | 4 (≈ 4.44 µM) | 5 | 6.85
14 | CC(=O)NC(CCCCNC(=O)c1ccc(O)cc1)C(=O)NC(CCCCNC(=O)c1ccc(O)cc1)C(=O)NC(CCCCNC(=O)c1ccc(O)cc1)C(N)=O (stereo not shown) [Cpd 55] | 311 | 311 |  |  |  |  |  | 
15 | CC(=O)NC(CCCCNC(=O)c1cc(O)cc(O)c1)C(=O)NC(CCCCNC(=O)c1cc(O)cc(O)c1)C(=O)NC(CCCCNC(=O)c1cc(O)cc(O)c1)C(N)=O (stereo not shown) [Cpd 56] | 147 | 147 |  |  | 125.00 |  |  | 125.00

Further lines, with some results ahead:

Row | IC50 [1, 4] [µM] | IC50 [2, 6] [µM] | Compound | IC 50 (ug/ml) 2nd tier ([1]; Table 8, galloyl constructs) [µg/mL] | IC50 [1, 3] [µM] | Two Tier Assay IC50 ([1]; library MSI 27) [µg/mL] | IC 50 (ug/ml) 1st tier ([2]; Table 8, galloyl constructs) [µg/mL] | IC50 [2, 5] [µM] | Single Tier Assay IC50 ([2]; library MSI 27) [µg/mL]
16 | 367 | 367 | NC(=O)C(CCCCNC(=O)c1cc(O)cc(O)c1)NC(=O)C(CCCCNC(=O)c1cc(O)cc(O)c1)NC(=O)c1cc(O)cc(O)c1 (stereo not shown) [Cpd 32] |  |  |  |  |  | 
17 | 107 | 145 | COc1cc(C(=O)NCCCCC(NC(=O)C(CCCCNC(=O)c2cc(OC)c(O)c(OC)c2)NC(C)=O)C(N)=O)cc(OC)c1O (stereo not shown) [Cpd 33] |  |  | 72.17 |  |  | 97.85
18 | 317 | 317 | CCOc1cc(C(=O)NCCCCC(NC(=O)C(CCCCNC(=O)c2cc(OCC)c(OCC)c(OCC)c2)NC(C)=O)C(N)=O)cc(OCC)c1OCC (stereo not shown) [Cpd 35] |  |  |  |  |  | 
19 | 285 | 450 | CC(=O)NC(CCCCNC(=O)c1ccc(O)cc1)C(=O)NC(CCCCNC(=O)c1ccc(O)cc1)C(N)=O (stereo not shown) [Cpd 39] |  |  | 158.60 |  |  | 
20 | 425 | 425 | CC(=O)NC(CCCCNC(=O)c1cc(O)cc(O)c1)C(=O)NC(CCCCNC(=O)c1cc(O)cc(O)c1)C(N)=O (stereo not shown) [Cpd 40] |  |  |  |  |  | 
21 | 74.2 | 80 | COc1cc(C(=O)NCCCCC(NC(=O)C(CCCCNC(=O)c2cc(OC)c(O)c(OC)c2)NC(=O)C(CCCCNC(=O)c2cc(OC)c(O)c(OC)c2)NC(=O)c2cc(OC)c(O)c(OC)c2)C(N)=O)cc(OC)c1O (stereo not shown) [Cpd 41] |  |  | 83.26 |  |  | 89.77
22 | 186 | 186 | CCOc1cc(C(=O)NCCCC[C@@H](NC(=O)[C@@H](CCCCNC(=O)c2cc(OCC)c(OCC)c(OCC)c2)NC(=O)[C@@H](CCCCNC(=O)c2cc(OCC)c(OCC)c(OCC)c2)NC(=O)c2cc(OCC)c(OCC)c(OCC)c2)C(N)=O)cc(OCC)c1OCC [Cpd 43] |  |  |  |  |  | 
23 | 111 | 120 | COc1cc(C(=O)NCCCCC(NC(=O)C(CCCCNC(=O)c2cc(OC)c(O)c(OC)c2)NC(=O)C(CCCCNC(=O)c2cc(OC)c(O)c(OC)c2)NC(C)=O)C(N)=O)cc(OC)c1O (stereo not shown) [Cpd 49] |  |  | 108.80 |  |  | 118.00
24 | 217 | 217 | CCOc1cc(C(=O)NCCCCC(NC(=O)C(CCCCNC(=O)c2cc(OCC)c(OCC)c(OCC)c2)NC(=O)C(CCCCNC(=O)c2cc(OCC)c(OCC)c(OCC)c2)NC(C)=O)C(N)=O)cc(OCC)c1OCC (stereo not shown) [Cpd 51] |  |  |  |  |  | 
25 | 95.7 | 75.1 | CCOC(=O)Oc1c(OC)cc(C(=O)NCCCCC(NC(=O)C(CCCCNC(=O)c2cc(OC)c(OC(=O)OCC)c(OC)c2)NC(=O)C(CCCCNC(=O)c2cc(OC)c(OC(=O)OCC)c(OC)c2)NC(C)=O)C(N)=O)cc1OC (stereo not shown) [Cpd 53] |  |  | 114.80 |  |  | 90.15
